In PubChem BioAssay AID256 (DTP/NCI, 2004):
“And” between values parts separate entries of the source, which are not always exact repeats. Equal values may be shown once. Inconclusive results and toxic doses are left out. The calls were made as follows: active = survival T/C of 150% or more; inactive = T/C below 125% in these data.

Test system: CD2F1 mice, L1210 leukemia ip, survival T/C
Assay: NCI In Vivo Anticancer Drug Screen. Data for tumor model L1210 Leukemia (intraperitoneal) in CD2F1 (CDF1) mice
Conditions: higher = longer survival
Outline: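 Tumor-bearing mice (transplanted tumor) were split into treated and vehicle control groups, and the measured endpoint of each treated group was divided by that of its vehicle controls.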

[1] = endpoint: mean survival time, dose: 75.0 mg/kg/injection, schedule: Q01DX001 (ip), vehicle: other
[2] = endpoint: mean survival time, dose: 100.0 mg/kg/injection, schedule: Q04DX002 (ip), vehicle: saline with Tween-80
[3] = endpoint: mean survival time, dose: 200.0 mg/kg/injection, schedule: Q04DX002 (ip), vehicle: saline with Tween-80
[4] = endpoint: mean survival time, dose: 400.0 mg/kg/injection, schedule: Q04DX002 (ip), vehicle: saline with Tween-80
[5] = endpoint: mean survival time, dose: 100.0 mg/kg/injection, schedule: Q04DX003 (ip), vehicle: saline with Tween-80
[6] = endpoint: mean survival time, dose: 200.0 mg/kg/injection, schedule: Q04DX003 (ip), vehicle: saline with Tween-80
[7] = endpoint: mean survival time, dose: 400.0 mg/kg/injection, schedule: Q04DX003 (ip), vehicle: saline with Tween-80
[8] = endpoint: mean survival time, dose: 100.0 mg/kg/injection, schedule: Q01DX001 (ip), vehicle: saline with Tween-80
[9] = endpoint: mean survival time, dose: 200.0 mg/kg/injection, schedule: Q01DX001 (ip), vehicle: saline with Tween-80
[10] = endpoint: mean survival time, dose: 400.0 mg/kg/injection, schedule: Q01DX001 (ip), vehicle: saline with Tween-80
[11] = endpoint: mean survival time, dose: 100.0 mg/kg/injection, schedule: Q01DX009 (ip), vehicle: saline with Tween-80
[12] = endpoint: mean survival time, dose: 200.0 mg/kg/injection, schedule: Q01DX009 (ip), vehicle: saline with Tween-80
[13] = endpoint: mean survival time, dose: 400.0 mg/kg/injection, schedule: Q01DX009 (ip), vehicle: saline with Tween-80

Measured: T/C

O=C/C(Cl)=C(/Cl)C(=O)O
inactive: endpoint: mean survival time, dose: 1.25 mg/kg/injection, schedule: Q01DX009 (ip), vehicle: saline with Tween-80 100 % of control | endpoint: mean survival time, dose: 2.5 mg/kg/injection, schedule: Q01DX009 (ip), vehicle: saline with Tween-80 98 % of control | endpoint: mean survival time, dose: 5.0 mg/kg/injection, schedule: Q01DX009 (ip), vehicle: saline with Tween-80 108 % of control | endpoint: mean survival time, dose: 6.25 mg/kg/injection, schedule: Q04DX002 (ip), vehicle: saline with Tween-80 103 % of control | endpoint: mean survival time, dose: 10.0 mg/kg/injection, schedule: Q01DX009 (ip), vehicle: saline with Tween-80 104 % of control | endpoint: mean survival time, dose: 12.5 mg/kg/injection, schedule: Q04DX002 (ip), vehicle: saline with Tween-80 107 % of control | endpoint: mean survival time, dose: 20.0 mg/kg/injection, schedule: Q01DX009 (ip), vehicle: saline with Tween-80 103 % of control | endpoint: mean survival time, dose: 25.0 mg/kg/injection, schedule: Q04DX002 (ip), vehicle: saline with Tween-80 111 % of control

CC1=C(C#[N+][O-])C(C)(C)CCC1
inactive: [1] 102 % of control | endpoint: mean survival time, dose: 150.0 mg/kg/injection, schedule: Q01DX001 (ip), vehicle: other 97 % of control | endpoint: mean survival time, dose: 300.0 mg/kg/injection, schedule: Q01DX001 (ip), vehicle: other 105 % of control

CCc1ccc(S(=O)(=O)c2ccc(C)cc2)cc1
inactive: endpoint: mean survival time, dose: 75.0 mg/kg/injection, schedule: Q04DX003 (ip), vehicle: saline 100 % of control | endpoint: mean survival time, dose: 150.0 mg/kg/injection, schedule: Q04DX003 (ip), vehicle: saline 100 % of control | endpoint: mean survival time, dose: 300.0 mg/kg/injection, schedule: Q04DX003 (ip), vehicle: saline 100 % of control

COc1ccccc1NC(=O)Oc1ccc(Cl)c(C)c1
inactive: [2] 103 % of control | [3] 103 % of control | [4] 96 % of control

Cc1ccc(N2CC=C(c3ccccc3)OP2(=O)N(CCCl)CCCl)cc1 (centres undefined)
inactive: endpoint: mean survival time, dose: 31.25 mg/kg/injection, schedule: Q01DX001 (ip), vehicle: saline 100 % of control | endpoint: mean survival time, dose: 62.5 mg/kg/injection, schedule: Q01DX001 (ip), vehicle: saline 102 % of control | endpoint: mean survival time, dose: 125.0 mg/kg/injection, schedule: Q01DX001 (ip), vehicle: saline 100 % of control | endpoint: mean survival time, dose: 250.0 mg/kg/injection, schedule: Q01DX001 (ip), vehicle: saline 100 % of control | endpoint: mean survival time, dose: 500.0 mg/kg/injection, schedule: Q01DX001 (ip), vehicle: saline 100 % of control

O=C(O)C1C2CCC(CC2)C1C(=O)O (centres undefined)
inactive: [2] 93 % of control | [3] 97 % of control | [4] 101 % of control

N/C(=N\N=C\c1c(F)c(F)c(F)c(F)c1F)N[N+](=O)[O-]
inactive: [5] 106 % of control | [6] 98 % of control | [7] 96 % of control

CCOc1ccc(-n2c(O)c(N=Nc3ccccc3OC)c(=O)n(-c3ccc(OC)cc3)c2=S)cc1
inactive: [8] 101 % of control | [9] 95 % of control | [10] 94 % of control

CSc1nc(NN)c2cnn(C3OC(CO)C(O)C3O)c2n1 (centres undefined)
inactive: endpoint: median survival time, dose: 11.3 mg/kg/injection, schedule: Q01DX005 (ip), vehicle: saline with Tween-80 107 % of control | endpoint: median survival time, dose: 22.5 mg/kg/injection, schedule: Q01DX005 (ip), vehicle: saline with Tween-80 104 % of control | endpoint: median survival time, dose: 45.0 mg/kg/injection, schedule: Q01DX005 (ip), vehicle: saline with Tween-80 102 % of control | endpoint: median survival time, dose: 90.0 mg/kg/injection, schedule: Q01DX005 (ip), vehicle: saline with Tween-80 105 % of control

O=C(CC(NC(=O)OCc1ccccc1)C(=O)OCc1ccccc1)OCc1ccccc1 (centres undefined)
inactive: [11] 106 % of control | [5] 92 % of control | [12] 98 % of control | [6] 91 % of control | [13] 97 % of control | [7] 92 % of control

O=c1c2ccccc2[nH]c2cccc([N+](=O)[O-])c12
inactive: [11] 102 % of control | [5] 94 % of control | [12] 98 % of control | [6] 94 % of control | [13] 96 % of control | [7] 91 % of control

c1ccc2c(c1)Oc1ccccc1C2C1c2ccccc2Oc2ccccc21
inactive: [5] 100 % of control | [6] 100 % of control | [7] 116 % of control

CCOC(=O)C1=C(Nc2ccc(OC)cc2)C(N)=NC1=N
inactive: endpoint: median survival time, dose: 6.25 mg/kg/injection, schedule: Q01DX005 (ip), vehicle: suspension in saline 98 % of control | endpoint: median survival time, dose: 12.5 mg/kg/injection, schedule: Q01DX005 (ip), vehicle: suspension in saline 101 % of control and 107 % of control | endpoint: median survival time, dose: 25.0 mg/kg/injection, schedule: Q01DX005 (ip), vehicle: suspension in saline 101 % of control and 107 % of control | endpoint: median survival time, dose: 36.0 mg/kg/injection, schedule: Q01DX005 (ip), vehicle: saline 105 % of control and 108 % of control | endpoint: median survival time, dose: 50.0 mg/kg/injection, schedule: Q01DX005 (ip), vehicle: saline 111 % of control | endpoint: median survival time, dose: 50.0 mg/kg/injection, schedule: Q01DX005 (ip), vehicle: suspension in saline 101 % of control and 107 % of control | endpoint: median survival time, dose: 60.0 mg/kg/injection, schedule: Q01DX005 (ip), vehicle: saline 102 % of control | endpoint: median survival time, dose: 100.0 mg/kg/injection, schedule: Q01DX005 (ip), vehicle: saline 106 % of control | endpoint: median survival time, dose: 100.0 mg/kg/injection, schedule: Q01DX005 (ip), vehicle: suspension in saline 117 % of control

COc1ccc(/C=C/C(=O)O)cc1
inactive: [8] 102 % of control | [9] 96 % of control | [10] 97 % of control

NC(=O)c1ncn(C2OC(COP(=O)(O)O)C(O)C2O)c1N (centres undefined)
inactive: endpoint: mean survival time, dose: 12.5 mg/kg/injection, schedule: Q01DX005 (ip), vehicle: water 97 % of control | endpoint: mean survival time, dose: 25.0 mg/kg/injection, schedule: Q01DX005 (ip), vehicle: water 96 % of control | endpoint: mean survival time, dose: 50.0 mg/kg/injection, schedule: Q01DX005 (ip), vehicle: water 102 % of control | endpoint: mean survival time, dose: 100.0 mg/kg/injection, schedule: Q01DX001 (ip), vehicle: saline 102 % of control | endpoint: mean survival time, dose: 100.0 mg/kg/injection, schedule: Q01DX005 (ip), vehicle: water 94 % of control | endpoint: mean survival time, dose: 200.0 mg/kg/injection, schedule: Q01DX001 (ip), vehicle: saline 95 % of control | endpoint: mean survival time, dose: 200.0 mg/kg/injection, schedule: Q01DX005 (ip), vehicle: water 100 % of control | endpoint: mean survival time, dose: 400.0 mg/kg/injection, schedule: Q01DX001 (ip), vehicle: saline 101 % of control

CN=NC(C)C
inactive: [12] 113 % of control

CCCCCCCCCCCCOCCOCCOCCOCCO
inactive: [2] 98 % of control | [3] 102 % of control

O=C(O)CCCCCCCC(=O)O
inactive: endpoint: median survival time, dose: 6.25 mg/kg/injection, schedule: Q01DX009 (ip), vehicle: distilled water + Tween-80 101 % of control | endpoint: median survival time, dose: 12.5 mg/kg/injection, schedule: Q01DX009 (ip), vehicle: distilled water + Tween-80 95 % of control | endpoint: median survival time, dose: 25.0 mg/kg/injection, schedule: Q01DX009 (ip), vehicle: distilled water + Tween-80 101 % of control | endpoint: median survival time, dose: 50.0 mg/kg/injection, schedule: Q01DX009 (ip), vehicle: distilled water + Tween-80 89 % of control | endpoint: median survival time, dose: 100.0 mg/kg/injection, schedule: Q01DX009 (ip), vehicle: distilled water + Tween-80 97 % of control

c1ccc(C2=C(c3ccccc3)OCCO2)cc1
inactive: [8] 110 % of control | [9] 89 % of control | [10] 92 % of control

Cc1cn(C2CC(O)C(Cn3ccc4ccccc43)O2)c(=O)[nH]c1=O (centres undefined)
inactive: endpoint: mean survival time, dose: 12.5 mg/kg/injection, schedule: Q01DX005 (ip), vehicle: Klucel (hydroxypropylcellulose) (HPC) 94 % of control | endpoint: mean survival time, dose: 25.0 mg/kg/injection, schedule: Q01DX005 (ip), vehicle: Klucel (hydroxypropylcellulose) (HPC) 90 % of control

S=c1cc[nH]c2ccccc12
inactive: endpoint: mean survival time, dose: 12.5 mg/kg/injection, schedule: Q01DX009 (ip), vehicle: other 104 % of control | endpoint: mean survival time, dose: 25.0 mg/kg/injection, schedule: Q01DX009 (ip), vehicle: other 102 % of control | endpoint: mean survival time, dose: 50.0 mg/kg/injection, schedule: Q01DX009 (ip), vehicle: other 104 % of control

O=C(CNC(=O)Nc1cccc([N+](=O)[O-])c1)N/N=C/c1ccncc1
inactive: endpoint: mean survival time, dose: 50.0 mg/kg/injection, schedule: Q01DX009 (ip), vehicle: saline with Tween-80 89 % of control | [11] 89 % of control | [12] 93 % of control

O=S(=O)(O)CCCBr
inactive: endpoint: mean survival time, dose: 100.0 mg/kg/injection, schedule: Q01DX009 (ip), vehicle: saline 93 % of control | endpoint: mean survival time, dose: 200.0 mg/kg/injection, schedule: Q01DX009 (ip), vehicle: saline 105 % of control | endpoint: mean survival time, dose: 400.0 mg/kg/injection, schedule: Q01DX009 (ip), vehicle: saline 100 % of control

C=C(CN(C)C)c1ccccn1
inactive: [1] 100 % of control

O=C(Nc1cccc(Cl)c1)c1c[nH]c2cc(Cl)ccc2c1=O
inactive: [11] 101 % of control | [5] 96 % of control | [12] 95 % of control | [6] 93 % of control | [13] 101 % of control | [7] 93 % of control
